The results in this text go back to patent US10633367B2, “Fluorine- and/or deuterium-containing compounds for treating non-small cell lung cancer and related diseases” (X-Cutag Therapeutics, Inc., priority 2017, dated 2020).

In series [1] the test system is NCI-H1975 NSCLC cells carrying activating EGFR T790M mutation. As to the kind of experiment: Cell viability of NCI-H1975 cells (CCK-8 assay). Conditions: 36 hour treatment, CCK-8, FIG. 13. In kind it is cell-based, human. Here is the method: NCI-H1975 is a model human NSCLC cell line that expresses activating EGER-T790M mutant, resulting in uncontrolled cell proliferation. Efficient inhibition of EGFR tyrosine kinase activity by TKI can affect cell growth, causing cell death. Here the inventors studied the effect of F1-osimertinib on cell viability of NCI-H1975 cells by […] (Cell Counting Kit-8 (CCK-8), Bimake.com, Houston, Tex.). 4,000 exponentially growing cells in 100 ul culture media were seeded in triplicate into 96-well plates and cultured to 70-80% continency. Cells were treated with indicated concentration of F1-osimertinib for 36 hour. 10 ul/well CCK-8 were added and continuously incubated till the absorbance (OD) at 450 nm reaches 0.8 measured by a microplate reader. Medium only wells were served as blank control. The cell viability was calculated as follows: Cell viability (%)=[A(F1-osimertinib)−A(blank)]/[A(solvent)−A(blank)]×100%. A: OD value measured.

A short description of series [2]: Co-incubation in human plasma (ex-vivo stability, LC-MS/MS). In kind it is in vitro ADME. Conditions: co-dosed with osimertinib at 1:1 ratio, 0 to 120 minutes, FIG. 9.
Description: (§1) Briefly, 40 μL of osimertinib was co-incubated with an equal volume of one of the compounds described in this invention at the same concentration in blank plasma (human, beagle dog, Sprague-Dawley rat or CD-1 mouse). The tubes were incubated in a dry bath incubator for six time points ranging from 0 to 120 minutes. At each time point, the plasma was crashed with 200 μL internal standard working solution in acetonitrile, then vortexes and centrifuged. A portion of the supernatant was then transferred to autosampler vials for injection into the LC-MS/MS system. Chromatographic retention of osimertinib and the compounds described in the invention was obtained on an ACE 3 C18, 2.1×50 min, 3.0 μm column (Aberdeen, Scotland) under gradient conditions with a flow rate of 0.3 mL/minute. Analytes were detected by multiple reaction monitoring using an MDS Sciex API 4000 mass spectrometer (Applied Biosystems/MDS Sciex, Concord, Ontario, Canada) in positive mode. Data was captured using Analyst®, Version 1.6.2 (Applied Biosystems/MDS Sciex, Foster City, Calif.) and then exported to Excel® (Microsoft, Seattle, Wash.) for further data reduction.
Series [3] can be described thus: Co-incubation in rat plasma (ex-vivo stability, LC-MS/MS). In kind it is in vitro ADME, Sprague-Dawley rat. To be noted: after incubating for two hours, co-incubated, FIG. 10.
Description: as §1
A short description of series [4]: Co-incubation in dog plasma (ex-vivo stability, LC-MS/MS). In kind it is in vitro ADME. To be noted: beagle plasma, after incubating for two hours, co-incubated, FIG. 11.
Description: as §1
Series [5] in a line: Co-incubation in mouse plasma (ex-vivo stability, LC-MS/MS). To be noted: after incubating for two hours, co-incubated, FIG. 12. In kind it is in vitro ADME, CD-1 mouse.
Description: as §1

Each structure is given as a SMILES string.

With `[2H]C([2H])([2H])n1cc(-c2ccnc(Nc3cc(NC(=O)C(=C)F)c(N(C)CCN(C)C)cc3OC)n2)c2ccccc21` [F1-D3-osimertinib], the “inhibition of NSCLC cell growth (cell viability)” value in series [1] is recorded as “significant inhibition of NSCLC cell growth”.

Consider `C=C(F)C(=O)Nc1cc(Nc2nccc(-c3cn(C)c4ccccc34)n2)c(OC)cc1N(C)CCN(C)C` [F1-osimertinib], for which, in series [1], the “inhibition of NSCLC cell growth (cell viability)” value is “significant inhibition of NSCLC cell growth”.

Take `C=CC(=O)Nc1cc(Nc2nccc(-c3cn(C)c4ccccc34)n2)c(OC)cc1N(C)CCN(C)C` [osimertinib, N-(2-{2-dimethylaminoethyl-methylamino}-4-methoxy-5-{[4-(1-methylindol-3-yl)pyrimidin-2-yl]amino}phenyl)prop-2-enamide]: the “stability when incubated in human plasma” value in series [2] is given as “decreased rapidly”. For the same molecule, the entries for the “remaining percentage of the initial concentration” value in series [3] and in series [4] were “around 35%” and “approximately 78%”, respectively. In addition, the remaining percentage in series [5] turned out to be 92%.
